{"source": "patent US11723903B2", "about": "“Treatment of schizophrenia” (Vanda Pharmaceuticals Inc., priority 2015, dated 2023)", "key": {"[1]": {"conditions": "prescribing information approved as of the priority date; cited from earlier work"}, "[2]": {"assay": "post-marketing experience (post-approval use): adverse reactions in treated patients", "assay_type": "in vivo", "conditions": "for adverse reactions associated with treatment, identified during post-approval use: reported voluntarily from a population of uncertain size, frequency and causality not established", "source_text": "This invention comprises the discovery through post-marketing experience that treatment of patients with iloperidone has been associated with specific adverse reactions.\nWithout limiting this invention to a particular mechanism of action, the enumerated reactions may be hypersensitivity reactions. An aspect of this invention therefore comprises amending the contraindications section and/or the adverse events section of the iloperidone package insert, i.e., prescribing information, to read more or less as follows: • 4 CONTRAINDICATIONS • FANAPT is contraindicated in individuals with a known hypersensitivity reaction to the product. […] Because these reactions were reported voluntarily from a population of uncertain size, it is not possible to reliably estimate their frequency or establish a causal relationship to drug exposure."}}}
{"smiles": "COc1cc(C(C)=O)ccc1OCCCN1CCC(c2noc3cc(F)ccc23)CC1", "note": "[iloperidone]", "values": [{"measurement": "known hypersensitivity reactions to the product (Contraindications section)", "setting": "[1]", "result": "pruritus and urticaria"}, {"measurement": "relative frequency among the enumerated reactions", "setting": "[2]", "result": "rash was the most common followed by swollen tongue and swollen lip"}, {"measurement": "adverse reactions associated with treatment, identified during post-approval use", "setting": "[2]", "result": "anaphylaxis, angioedema, throat tightness, oropharyngeal swelling, swelling of the face, lip, mouth, and tongue; urticaria, rash, and pruritus"}, {"measurement": "adverse reactions associated with treatment, identified during post-approval use", "setting": "[2]; listed as FANAPT", "result": "retrograde ejaculation and hypersensitivity reactions (including anaphylaxis, angioedema, throat tightness, oropharyngeal swelling, swelling of the face, lip, mouth, and/or tongue; urticaria, rash, and pruritus)"}]}
